# Test results as given in patent publication US20190029951A1, “EXTENDED RELEASE FORMULATIONS OF VELIPARIB FOR THE TREATMENT OF CANCER” (AbbVie Inc., priority 2016, published 2019).
# How the values were obtained:
# Assay type in all cases: in vivo, human
# ovarian cancer = assay: Best tumor response in patients with ovarian cancer; conditions: patients with OC, 8/44
# Source text: (§1) The term “efficacy” as used herein refers to an inhibitory effect on tumor growth, which can be manifested as slowing, retarding, arresting or even reversing (i.e., shrinking) growth of the tumor. In some embodiments, the effect on tumor growth is associated with suppression by a PARP inhibitory compound, for example Veliparib. In clinical sittings, efficacy can be measured by one skilled in the art and by a number of efficacy endpoints, for example, overall survival (OS), progression free survival (PPS), time to progression (TTP), time to treatment failure (TTF), event-free survival (EFS), time to next treatment (TINT), objective response rate (ORR), duration of response (DoR), and/or response rate, for example, partial response (PR) or complete response (CR). The term “partial response” or “PR” as used herein, means a partial response of the target lesion, indicated by at least a 30% decrease in the sum of diameters of target lesions, taking as reference the baseline sum diameters.
# (§2) Eligible patients had metastatic BRCA+ cancer, BRCA± high-grade serious ovarian/primary peritoneal/fallopian tube cancer (OC), (part 1/2), or BRCA+ breast cancer (BC), or OC (part 3).
# (§3) Best tumor responses were compared between patients from Part 1 who received IR-v as the primary treatment and patients in Part 2 and Part 3 of the study who received ER-v formulation C. […]
# breast cancer = assay: Best tumor response in patients with breast cancer; conditions: patients with BC, 6/16
# Source text: as §1, §2, §3
# [1] = test system: tumor growth (sum of the longest diameter for all target lesions); assay: Exposure-response tumor growth inhibition model (NONMEM nonlinear mixed-effects); conditions: final tumor growth inhibition model
# Source text: Fifty-four subjects (39 with ovarian, fallopian tube, or peritoneal cancers, 14 with breast cancer, and 1 with prostate cancer) were included in an exposure-response analysis using nonlinear mixed-effects modeling approach with NONMEM software (version 7.3.0) (Table 6).
# Veliparib pharmacokinetics (PK) was described with a one-compartment model with first-order elimination process (kel) (FIG. 4). For the IR formulation, absorption was modeled as a first-order process (ka) (Equations 1a and 1b). For the ER formulation, the absorption was modeled as a zero-order process (Dose/Duration) (Equations 2a and 2b).
# Subsequently, the relationship between veliparib PK exposure and longitudinal tumor growth inhibition was analyzed. The time course of tumor growth inhibition was modeled using an exponential tumor growth model represented by a single tumor compartment linked to veliparib central compartment with linear inhibitory effect of veliparib on tumor growth (see FIG. 4 and Equation 3). The possible measurement error at the baseline was accounted for by allowing individual deviations from the observed baseline as between-subject variability. Inter-individual variability was incorporated on the slope and estimated baseline using exponential function and the residual variability was characterized using additive error. […]
smiles,measurement,setting,value
"C[C@]1(c2nc3c(C(N)=O)cccc3[nH]2)CCCN1 [veliparib, 2-[(2R)-2-methylpyrrolidin-2-yl]-1H-benzimidazole-4-carboxamide]",Confirmed and unconfirmed responses,ovarian cancer,18%
same,Confirmed and unconfirmed responses,breast cancer,38%
same,"BRCA effect on Slope (i.e., ratio of Slope for BRCA-mut to Slope for BRCA-wt), Population Estimate",[1],1.72
